From patent publication EP2520566A1, “New Pharmaceutical Compounds” (Orion Corporation, priority 2011, dated 2012)

molecular target: TRPA1 (Homo sapiens, UniProt O75762); experiment: Determination of TRPA1 activity in vitro (TRPA1 antagonism in vitro), procedure of Wei et al., Anesthesiology 111 (2009) 147-154; format: cell-based
Excerpt: EXPERIMENT 1: Determination of TRPA1 activity in vitro
The illustrative examples of the present invention were screened for TRPA1 activity according to a procedure described in Wei et al., Anesthesiology 111 (2009) 147-154. Table 1. TRPA1 antagonism in vitro.

Sequence of TRPA1 (O75762 whole entry): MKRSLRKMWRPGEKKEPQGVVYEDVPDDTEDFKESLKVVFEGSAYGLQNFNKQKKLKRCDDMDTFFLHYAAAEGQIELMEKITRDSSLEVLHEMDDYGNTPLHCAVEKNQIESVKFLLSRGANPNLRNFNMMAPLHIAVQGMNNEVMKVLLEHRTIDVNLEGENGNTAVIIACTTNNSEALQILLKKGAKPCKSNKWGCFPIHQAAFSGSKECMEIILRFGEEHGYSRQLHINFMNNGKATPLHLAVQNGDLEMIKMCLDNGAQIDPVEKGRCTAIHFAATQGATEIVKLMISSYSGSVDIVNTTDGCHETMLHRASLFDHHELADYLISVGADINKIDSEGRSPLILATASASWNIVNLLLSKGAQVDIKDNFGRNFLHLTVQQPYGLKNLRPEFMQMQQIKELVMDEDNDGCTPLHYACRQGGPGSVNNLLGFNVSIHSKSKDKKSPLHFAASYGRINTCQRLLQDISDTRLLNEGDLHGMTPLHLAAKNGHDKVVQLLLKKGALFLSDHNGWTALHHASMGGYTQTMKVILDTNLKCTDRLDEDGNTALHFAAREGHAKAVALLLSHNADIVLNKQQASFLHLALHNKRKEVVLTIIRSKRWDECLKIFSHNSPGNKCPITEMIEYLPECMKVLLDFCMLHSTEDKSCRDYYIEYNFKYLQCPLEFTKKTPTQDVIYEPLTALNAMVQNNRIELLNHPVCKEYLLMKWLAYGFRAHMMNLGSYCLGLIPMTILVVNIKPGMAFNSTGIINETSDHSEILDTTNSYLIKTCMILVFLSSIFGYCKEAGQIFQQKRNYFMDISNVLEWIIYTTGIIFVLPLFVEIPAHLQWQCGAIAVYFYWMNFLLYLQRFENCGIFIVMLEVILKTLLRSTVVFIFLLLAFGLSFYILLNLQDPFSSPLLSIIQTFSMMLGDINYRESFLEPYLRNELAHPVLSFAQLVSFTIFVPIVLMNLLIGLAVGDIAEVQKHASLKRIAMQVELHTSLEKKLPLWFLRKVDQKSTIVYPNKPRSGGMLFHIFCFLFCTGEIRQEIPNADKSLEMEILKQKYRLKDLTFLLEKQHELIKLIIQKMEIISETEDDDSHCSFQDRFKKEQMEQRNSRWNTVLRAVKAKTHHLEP

Which IC50 does the source give for `O=C(NCc1ccnc(OCCC(F)(F)F)c1)[C@@H]1C[C@@H](F)CN1S(=O)(=O)c1ccc(F)cc1` [Example 26, (2S,4R)-4-Fluoro-1-(4-fluorophenylsulfonyl)-N-((2-(3,3,3-trifluoropropoxy)pyridin-4-yl)methyl)pyrrolidine-2-carboxamide] here?
Its IC50 is 37 µM.

Which IC50 does the source give for `O=C(NCc1ccc(Br)cc1)[C@@H]1CCCN1S(=O)(=O)c1ccc(F)cc1` [Example 37, (S)-N-(4-bromobenzyl)-1-(4-fluorophenylsulfonyl)pyrrolidine-2-carboxamide] here?
Its IC50 is 11.6 µM.

With `CCCc1cc(CNC(=O)[C@@H]2CCCN2S(=O)(=O)c2ccccc2)ccc1C#N` [Example 11, (S)-N-(4-cyano-3-propylbenzyl)-1-(phenylsulfonyl)pyrrolidine-2-carboxamide] as the compound, how does the IC50 read?
Its IC50 is 4.4 µM.

Which IC50 does the source give for `O=C(NCc1ccc(Cl)cc1)[C@@H]1CCCN1S(=O)(=O)c1ccc(F)cc1` [Example 20, (S)-N-(4-chlorobenzyl)-1-(4-fluorophenylsulfonyl)pyrrolidine-2-carboxamide] here?
The IC50 was 12.5 µM.

For `CC(C)COc1ccnc(CNC(=O)[C@@H]2CCCN2S(=O)(=O)c2ccc(F)cc2)c1` [Example 30, (S)-1-(4-Fluorophenylsulfonyl)-N-((4-isobutoxypyridin-2-yl)methyl) pyrrolidine-2-carboxamide], which IC50 is on record?
Its IC50 is 10.5 µM.

With `CC(C)CSc1cc(CNC(=O)[C@@H]2CCCN2S(=O)(=O)c2ccc(F)cc2)ccn1` [Example 19, (S)-1-(4-Fluorophenylsulfonyl)-N-((2-(isobutylthio)pyridin-4-yl)methyl)pyrrolidine-2-carboxamide] as the compound, how does the IC50 read?
Its IC50 is 9.3 µM.

Which IC50 does the source give for `CCc1cc(CNC(=O)[C@@H]2CCCN2S(=O)(=O)c2ccc(F)cc2)ccc1C#N` [Example 5, (S)-N-(4-cyano-3-ethylbenzyl)-1-(4-fluorophenylsulfonyl)pyrrolidine-2-carboxamide] here?
The IC50 was 9.8 µM.

How did the IC50 turn out when `O=C(NCc1cc(F)cc(OC(F)F)c1)[C@@H]1CCCN1S(=O)(=O)c1ccc(F)cc1` [Example 13, (S)-N-(3-(difluoromethoxy)-5-fluorobenzyl)-1-(4-fluorophenylsulfonyl) pyrrolidine-2-carboxamide] was run?
The IC50 was 11.5 µM.

Which IC50 does the source give for `CCOc1cc(F)cc(CNC(=O)[C@@H]2CCCN2S(=O)(=O)c2ccc(F)cc2)c1` [Example 15, (S)-N-(3-ethoxy-5-fluorobenzyl)-1-(4-fluorophenylsulfonyl)pyrrolidine-2-carboxamide] here?
The IC50 was 5.9 µM.

`O=C(NCc1cccc(S(F)(F)(F)(F)F)c1)[C@@H]1CCCN1S(=O)(=O)c1ccccc1` [Example 25] was tested. Which IC50 did it give?
Its IC50 is 6.7 µM.

`CC(C)(C)COc1cc(CNC(=O)[C@@H]2C[C@@H](F)CN2S(=O)(=O)c2ccc(F)cc2)ccn1` [Example 4, (2S,4R)-4-Fluoro-1-(4-fluorophenylsulfonyl)-N-((2-(neopentyloxy)pyridin-4-yl)methyl)pyrrolidine-2-carboxamide] was tested. Which IC50 did it give?
Its IC50 is 11.3 µM.

Which IC50 does the source give for `O=C(NCc1ccc(C(F)(F)F)cc1)[C@@H]1CCCN1S(=O)(=O)c1ccccc1` [Example 17, (S)-1-(Phenylsulfonyl)-N-(4-(trifluoromethyl)benzyl)pyrrolidine-2-carboxamide] here?
The IC50 was 13 µM.

With `CCCC(=O)c1cccc(CNC(=O)[C@@H]2CCCN2S(=O)(=O)c2ccc(F)cc2)c1` [Example 3, (S)-N-(3-butyrylbenzyl)-1-(4-fluorophenylsulfonyl)pyrrolidine-2-carboxamide] as the compound, how does the IC50 read?
The IC50 was 10.4 µM.

Which IC50 does the source give for `O=C(NCc1ccnc(OCCC(F)(F)F)c1)[C@@H]1C[C@@H](F)CN1S(=O)(=O)c1ccc(F)c(F)c1` [Example 14, (2S,4R)-1-(3,4-Difluorophenylsulfonyl)-4-fluoro-N-((2-(3,3,3-trifluoropropoxy)pyridin-4-yl)methyl)pyrrolidine-2-carboxamide] here?
Its IC50 is 26 µM.

For `O=C(NCc1ccc(C(F)(F)F)cc1)[C@@H]1C[C@@H](F)CN1S(=O)(=O)c1ccc(F)cc1` [Example 8, (2S,4R)-4-Fluoro-1-(4-fluorophenylsulfonyl)-N-(4-(trifluoromethyl)benzyl)pyrrolidine-2-carboxamide], which IC50 is on record?
The IC50 was 14.5 µM.
